The kinase profiling compilation of Christmann-Franck et al. (2016)

Experiments:
Assay in all cases: KINOMEscan competition binding
Details in all cases: compound 10.0 µM
[1] = system: FLT3 (human), P36888 [D835H]
CHUK (human) = CHUK (human) (UniProt O15111)
PRKCI (human) = PRKCI (human) (UniProt P41743)
TTK (human) = TTK (human) (UniProt P33981)
CLK4 (human) = CLK4 (human) (UniProt Q9HAZ1)
MYLK3 (human) = MYLK3 (human) (UniProt Q32MK0)
CDK2 (human) = CDK2 (human) (UniProt P24941)
CDK3 (human) = CDK3 (human) (UniProt Q00526)
MAP4K4 (human) = MAP4K4 (human) (UniProt O95819)
STK25 (human) = STK25 (human) (UniProt O00506)
PIK3C2B (human) = PIK3C2B (human) (UniProt O00750)
DAPK1 (human) = DAPK1 (human) (UniProt P53355)
MERTK (human) = MERTK (human) (UniProt Q12866)
PAK3 (human) = PAK3 (human) (UniProt O75914)
MYO3B (human) = MYO3B (human) (UniProt Q8WXR4)
TXK (human) = TXK (human) (UniProt P42681)
[2] = system: RET (human), P07949 [M918T]
RPS6KA6 KD1 (human) = RPS6KA6 KD1 (human) (UniProt Q9UK32)
MAP2K3 (human) = MAP2K3 (human) (UniProt P46734)
TNK2 (human) = TNK2 (human) (UniProt Q07912)
EPHA8 (human) = EPHA8 (human) (UniProt P29322)
PI4KB (human) = PI4KB (human) (UniProt Q9UBF8)
INSR (human) = INSR (human) (UniProt P06213)
PRKACA (human) = PRKACA (human) (UniProt P17612)
TRPM6 (human) = TRPM6 (human) (UniProt Q9BX84)
CAMK2B (human) = CAMK2B (human) (UniProt Q13554)
WEE1 (human) = WEE1 (human) (UniProt P30291)
NEK1 (human) = NEK1 (human) (UniProt Q96PY6)
LATS1 (human) = LATS1 (human) (UniProt O95835)
MYO3A (human) = MYO3A (human) (UniProt Q8NEV4)
[3] = molecular target: TYK2 JH1 catalytic (human) (UniProt P29597)
ANKK1 (human) = ANKK1 (human) (UniProt Q8NFD2)
PHKG2 (human) = PHKG2 (human) (UniProt P15735)
PTK6 (human) = PTK6 (human) (UniProt Q13882)
CSNK1A1 (human) = CSNK1A1 (human) (UniProt P48729)
SLK (human) = SLK (human) (UniProt Q9H2G2)
PRKX (human) = PRKX (human) (UniProt P51817)
CSNK1G1 (human) = CSNK1G1 (human) (UniProt Q9HCP0)
MAP3K2 (human) = MAP3K2 (human) (UniProt Q9Y2U5)
MAP4K1 (human) = MAP4K1 (human) (UniProt Q92918)

Chain of SLK (human) (Q9H2G2 whole entry, looked up): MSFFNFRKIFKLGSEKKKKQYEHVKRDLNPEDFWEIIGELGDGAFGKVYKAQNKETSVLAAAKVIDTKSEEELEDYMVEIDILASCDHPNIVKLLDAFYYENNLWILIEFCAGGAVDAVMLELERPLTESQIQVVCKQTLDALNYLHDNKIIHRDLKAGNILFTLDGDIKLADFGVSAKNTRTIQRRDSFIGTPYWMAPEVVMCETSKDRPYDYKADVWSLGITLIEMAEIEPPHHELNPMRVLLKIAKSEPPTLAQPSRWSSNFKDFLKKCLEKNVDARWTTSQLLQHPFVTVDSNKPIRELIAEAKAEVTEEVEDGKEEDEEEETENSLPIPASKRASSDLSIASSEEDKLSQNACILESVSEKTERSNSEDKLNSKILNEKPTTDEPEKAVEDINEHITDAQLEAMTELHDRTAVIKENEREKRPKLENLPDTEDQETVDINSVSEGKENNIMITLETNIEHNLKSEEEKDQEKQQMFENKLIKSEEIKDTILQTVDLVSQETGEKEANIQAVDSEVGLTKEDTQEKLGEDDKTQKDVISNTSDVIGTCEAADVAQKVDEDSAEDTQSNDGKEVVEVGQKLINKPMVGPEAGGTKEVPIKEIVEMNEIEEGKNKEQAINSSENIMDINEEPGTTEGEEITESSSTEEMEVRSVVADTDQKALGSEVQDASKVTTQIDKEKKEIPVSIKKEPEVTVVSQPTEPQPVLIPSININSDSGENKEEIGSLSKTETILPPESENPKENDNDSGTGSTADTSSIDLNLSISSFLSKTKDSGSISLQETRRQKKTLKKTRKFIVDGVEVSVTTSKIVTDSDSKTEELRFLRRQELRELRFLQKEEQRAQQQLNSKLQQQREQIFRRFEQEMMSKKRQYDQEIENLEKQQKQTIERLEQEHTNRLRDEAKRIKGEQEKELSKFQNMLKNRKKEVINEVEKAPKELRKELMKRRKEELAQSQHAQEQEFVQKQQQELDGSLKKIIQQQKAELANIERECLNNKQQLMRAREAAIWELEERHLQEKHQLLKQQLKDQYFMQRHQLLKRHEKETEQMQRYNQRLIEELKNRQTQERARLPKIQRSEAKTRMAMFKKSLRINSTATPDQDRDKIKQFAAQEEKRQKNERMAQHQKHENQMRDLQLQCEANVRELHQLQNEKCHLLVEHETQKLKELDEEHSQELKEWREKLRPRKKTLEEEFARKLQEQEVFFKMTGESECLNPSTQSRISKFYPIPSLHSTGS
Chain of EPHA8 (human) (P29322 whole entry, looked up): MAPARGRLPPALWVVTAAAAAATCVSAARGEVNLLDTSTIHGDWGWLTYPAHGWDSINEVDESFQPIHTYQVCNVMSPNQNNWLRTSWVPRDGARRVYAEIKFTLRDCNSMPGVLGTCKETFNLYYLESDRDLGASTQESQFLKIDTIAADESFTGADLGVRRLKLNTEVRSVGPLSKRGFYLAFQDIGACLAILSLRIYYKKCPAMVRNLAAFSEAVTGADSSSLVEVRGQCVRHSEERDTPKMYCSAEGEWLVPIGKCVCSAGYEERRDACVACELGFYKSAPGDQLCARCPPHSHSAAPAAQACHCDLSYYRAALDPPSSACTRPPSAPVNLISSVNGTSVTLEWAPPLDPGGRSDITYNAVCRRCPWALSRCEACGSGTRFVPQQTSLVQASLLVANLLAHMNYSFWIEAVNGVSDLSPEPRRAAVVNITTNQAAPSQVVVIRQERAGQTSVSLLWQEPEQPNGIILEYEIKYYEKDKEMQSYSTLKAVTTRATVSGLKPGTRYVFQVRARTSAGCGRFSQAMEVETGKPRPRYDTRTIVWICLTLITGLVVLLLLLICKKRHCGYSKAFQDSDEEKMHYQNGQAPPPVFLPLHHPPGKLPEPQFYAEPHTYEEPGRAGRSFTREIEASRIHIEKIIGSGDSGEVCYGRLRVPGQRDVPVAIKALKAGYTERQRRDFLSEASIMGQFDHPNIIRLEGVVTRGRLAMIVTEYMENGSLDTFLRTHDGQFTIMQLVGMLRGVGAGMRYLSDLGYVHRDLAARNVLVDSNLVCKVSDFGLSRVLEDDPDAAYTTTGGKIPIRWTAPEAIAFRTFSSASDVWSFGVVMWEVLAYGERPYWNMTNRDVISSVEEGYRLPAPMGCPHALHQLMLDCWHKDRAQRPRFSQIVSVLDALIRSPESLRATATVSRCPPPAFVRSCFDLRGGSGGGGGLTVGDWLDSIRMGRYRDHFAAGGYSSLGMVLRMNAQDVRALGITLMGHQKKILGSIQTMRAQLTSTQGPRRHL
Chain of TXK (human) (P42681 whole entry, looked up): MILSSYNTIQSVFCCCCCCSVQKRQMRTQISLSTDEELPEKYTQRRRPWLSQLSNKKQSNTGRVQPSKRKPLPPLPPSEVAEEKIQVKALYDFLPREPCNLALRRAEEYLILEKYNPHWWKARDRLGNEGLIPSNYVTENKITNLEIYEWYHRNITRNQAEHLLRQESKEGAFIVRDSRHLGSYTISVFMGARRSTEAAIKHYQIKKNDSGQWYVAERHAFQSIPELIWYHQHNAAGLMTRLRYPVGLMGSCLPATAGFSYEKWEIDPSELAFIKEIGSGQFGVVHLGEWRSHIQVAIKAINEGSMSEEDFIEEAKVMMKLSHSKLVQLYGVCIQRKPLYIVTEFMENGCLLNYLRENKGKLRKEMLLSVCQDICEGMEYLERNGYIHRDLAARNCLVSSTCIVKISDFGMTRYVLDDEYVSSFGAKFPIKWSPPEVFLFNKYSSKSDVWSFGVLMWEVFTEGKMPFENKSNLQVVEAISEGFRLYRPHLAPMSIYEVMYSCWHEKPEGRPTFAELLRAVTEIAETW
Chain of WEE1 (human) (P30291 whole entry, looked up): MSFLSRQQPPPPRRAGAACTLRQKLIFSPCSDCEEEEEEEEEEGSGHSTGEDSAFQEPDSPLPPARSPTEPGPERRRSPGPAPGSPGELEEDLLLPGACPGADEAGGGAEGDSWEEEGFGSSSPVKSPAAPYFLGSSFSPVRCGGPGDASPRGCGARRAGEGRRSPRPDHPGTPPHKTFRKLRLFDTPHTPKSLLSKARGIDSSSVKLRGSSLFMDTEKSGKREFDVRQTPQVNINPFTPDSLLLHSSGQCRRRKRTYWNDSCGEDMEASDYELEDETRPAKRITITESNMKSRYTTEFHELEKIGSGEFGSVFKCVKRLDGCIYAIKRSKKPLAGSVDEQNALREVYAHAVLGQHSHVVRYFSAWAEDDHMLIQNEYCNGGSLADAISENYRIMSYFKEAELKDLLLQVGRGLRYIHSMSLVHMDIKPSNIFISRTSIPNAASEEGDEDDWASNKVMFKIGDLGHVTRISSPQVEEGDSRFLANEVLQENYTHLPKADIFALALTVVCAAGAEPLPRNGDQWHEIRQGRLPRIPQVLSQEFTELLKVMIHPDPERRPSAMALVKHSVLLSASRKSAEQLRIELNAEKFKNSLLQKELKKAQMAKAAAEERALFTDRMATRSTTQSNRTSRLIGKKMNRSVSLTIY
Chain of CLK4 (human) (Q9HAZ1 whole entry, looked up): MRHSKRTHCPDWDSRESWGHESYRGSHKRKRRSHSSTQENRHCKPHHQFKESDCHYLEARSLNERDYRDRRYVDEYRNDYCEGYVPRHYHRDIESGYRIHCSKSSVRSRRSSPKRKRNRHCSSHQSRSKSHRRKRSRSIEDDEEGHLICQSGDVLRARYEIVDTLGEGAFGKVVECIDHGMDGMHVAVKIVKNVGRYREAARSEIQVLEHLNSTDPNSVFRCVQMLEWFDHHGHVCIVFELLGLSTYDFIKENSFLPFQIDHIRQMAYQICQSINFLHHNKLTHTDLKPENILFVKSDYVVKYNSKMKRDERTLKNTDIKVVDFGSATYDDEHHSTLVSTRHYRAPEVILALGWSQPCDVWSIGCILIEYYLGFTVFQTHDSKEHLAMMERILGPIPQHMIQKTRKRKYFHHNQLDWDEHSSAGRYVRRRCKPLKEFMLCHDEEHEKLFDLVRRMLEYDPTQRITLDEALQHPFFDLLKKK
Chain of CDK3 (human) (Q00526 whole entry, looked up): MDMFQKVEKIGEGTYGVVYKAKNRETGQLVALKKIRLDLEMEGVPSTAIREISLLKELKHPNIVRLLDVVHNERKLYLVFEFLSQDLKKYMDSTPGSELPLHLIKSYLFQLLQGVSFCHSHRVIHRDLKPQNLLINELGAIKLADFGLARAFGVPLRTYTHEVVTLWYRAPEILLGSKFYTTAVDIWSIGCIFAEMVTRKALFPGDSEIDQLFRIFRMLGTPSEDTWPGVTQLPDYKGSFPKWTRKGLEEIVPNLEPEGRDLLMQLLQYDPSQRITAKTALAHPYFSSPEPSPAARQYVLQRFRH
Chain of PHKG2 (human) (P15735 whole entry, looked up): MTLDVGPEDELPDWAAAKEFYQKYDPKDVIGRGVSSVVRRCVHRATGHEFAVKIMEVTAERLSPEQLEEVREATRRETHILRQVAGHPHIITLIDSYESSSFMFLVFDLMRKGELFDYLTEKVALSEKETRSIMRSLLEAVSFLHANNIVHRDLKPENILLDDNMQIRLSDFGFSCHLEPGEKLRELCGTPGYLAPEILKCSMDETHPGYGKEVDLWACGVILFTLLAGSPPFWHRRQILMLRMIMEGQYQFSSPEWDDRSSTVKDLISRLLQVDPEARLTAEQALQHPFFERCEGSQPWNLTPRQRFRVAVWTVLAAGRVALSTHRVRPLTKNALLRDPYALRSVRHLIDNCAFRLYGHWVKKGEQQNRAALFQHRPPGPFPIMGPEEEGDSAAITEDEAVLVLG
Chain of CSNK1G1 (human) (Q9HCP0 whole entry, looked up): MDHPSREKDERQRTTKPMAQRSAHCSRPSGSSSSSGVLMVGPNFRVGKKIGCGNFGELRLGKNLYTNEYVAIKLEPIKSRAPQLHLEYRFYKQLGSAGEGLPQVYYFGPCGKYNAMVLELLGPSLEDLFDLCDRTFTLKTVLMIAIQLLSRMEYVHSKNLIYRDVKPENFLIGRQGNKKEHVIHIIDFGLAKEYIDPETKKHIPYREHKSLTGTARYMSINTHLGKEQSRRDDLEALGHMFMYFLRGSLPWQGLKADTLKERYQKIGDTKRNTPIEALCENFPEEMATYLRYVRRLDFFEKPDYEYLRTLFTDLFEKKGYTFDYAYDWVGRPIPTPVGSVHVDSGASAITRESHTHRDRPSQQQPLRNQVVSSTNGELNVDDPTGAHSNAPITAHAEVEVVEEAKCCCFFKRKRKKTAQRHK

Compound | kinase still bound, per cent of control (CHUK (human)) [%] | kinase still bound, per cent of control (PRKCI (human)) [%] | kinase still bound, per cent of control (TTK (human)) [%] | kinase still bound, per cent of control (CLK4 (human)) [%] | kinase still bound, per cent of control (MYLK3 (human)) [%] | kinase still bound, per cent of control (CDK2 (human)) [%] | kinase still bound, per cent of control (CDK3 (human)) [%] | kinase still bound, per cent of control (PIK3C2B (human)) [%] | kinase still bound, per cent of control (DAPK1 (human)) [%] | kinase still bound, per cent of control (MERTK (human)) [%] | kinase still bound, per cent of control (PAK3 (human)) [%] | kinase still bound, per cent of control (MYO3B (human)) [%] | kinase still bound, per cent of control (TXK (human)) [%] | kinase still bound, per cent of control (RPS6KA6 KD1 (human)) [%] | kinase still bound, per cent of control (MAP2K3 (human)) [%] | kinase still bound, per cent of control (TNK2 (human)) [%] | kinase still bound, per cent of control (EPHA8 (human)) [%] | kinase still bound, per cent of control (PI4KB (human)) [%] | kinase still bound, per cent of control (PRKACA (human)) [%] | kinase still bound, per cent of control (TRPM6 (human)) [%] | also measured
NC(=O)Nc1cc(-c2cccc(F)c2)sc1C(=O)N[C@@H]1CCCNC1 | 0 | 11 | 12 | 2.4 | 10 | 93 | 100 | 16 | 0.1 | 0.05 | 0.5 | 8.2 | 0.1 | 0.3 | 10 | 0.85 | 0.4 | 100 | 1.4 | 74 | kinase still bound, per cent of control [1]: 0%; kinase still bound, per cent of control (MAP4K4 (human)): 0.5%; kinase still bound, per cent of control (STK25 (human)): 0%; kinase still bound, per cent of control [2]: 0%; kinase still bound, per cent of control (INSR (human)): 27%; kinase still bound, per cent of control (CAMK2B (human)): 19%; kinase still bound, per cent of control (WEE1 (human)): 50%; kinase still bound, per cent of control (NEK1 (human)): 24%; kinase still bound, per cent of control (LATS1 (human)): 11%; kinase still bound, per cent of control (MYO3A (human)): 4.2%; kinase still bound, per cent of control [3]: 0%; kinase still bound, per cent of control (ANKK1 (human)): 1.2%; kinase still bound, per cent of control (PHKG2 (human)): 1.6%; kinase still bound, per cent of control (PTK6 (human)): 1.4%; kinase still bound, per cent of control (CSNK1A1 (human)): 0.5%; kinase still bound, per cent of control (SLK (human)): 0.05%; kinase still bound, per cent of control (PRKX (human)): 0.7%; kinase still bound, per cent of control (CSNK1G1 (human)): 7.6%; kinase still bound, per cent of control (MAP3K2 (human)): 0%
COCC(=O)NC/C=C/c1ccc2ncnc(Nc3ccc(Oc4ccc(C)nc4)c(C)c3)c2c1 | 100 | 93 | 80 | 100 | 100 | 92 | 100 | 88 | 76 | 97 | 70 | 100 | 84 | 96 | 100 | 78 | 98 | 100 | 100 | 100 | kinase still bound, per cent of control (MAP4K4 (human)): 97%; kinase still bound, per cent of control (STK25 (human)): 94%; kinase still bound, per cent of control [2]: 77%; kinase still bound, per cent of control (MAP4K1 (human)): 91%; kinase still bound, per cent of control (CAMK2B (human)): 88%; kinase still bound, per cent of control (WEE1 (human)): 100%; kinase still bound, per cent of control (NEK1 (human)): 83%; kinase still bound, per cent of control (LATS1 (human)): 100%; kinase still bound, per cent of control (MYO3A (human)): 75%; kinase still bound, per cent of control [3]: 100%; kinase still bound, per cent of control (ANKK1 (human)): 60%; kinase still bound, per cent of control (PHKG2 (human)): 86%; kinase still bound, per cent of control (PTK6 (human)): 100%; kinase still bound, per cent of control (CSNK1A1 (human)): 100%; kinase still bound, per cent of control (SLK (human)): 60%; kinase still bound, per cent of control (PRKX (human)): 100%; kinase still bound, per cent of control (CSNK1G1 (human)): 100%; kinase still bound, per cent of control (MAP3K2 (human)): 100%
C[C@@H](Oc1cc(-c2cnn(C3CCNCC3)c2)cnc1N)c1c(Cl)ccc(F)c1Cl | 100 | 35 | 50 | 100 | 100 | 81 | 100 | 46 | 74 | 2.1 | 5.8 | 100 | 5.9 | 46 | 42 | 2.8 | 0.2 | 100 | 100 | 79 | kinase still bound, per cent of control [1]: 6.8%; kinase still bound, per cent of control (STK25 (human)): 65%; kinase still bound, per cent of control (INSR (human)): 0.2%; kinase still bound, per cent of control (MAP4K1 (human)): 4.6%; kinase still bound, per cent of control (WEE1 (human)): 100%; kinase still bound, per cent of control (NEK1 (human)): 56%; kinase still bound, per cent of control (LATS1 (human)): 100%; kinase still bound, per cent of control (MYO3A (human)): 66%; kinase still bound, per cent of control [3]: 14%; kinase still bound, per cent of control (ANKK1 (human)): 4.2%; kinase still bound, per cent of control (PHKG2 (human)): 32%; kinase still bound, per cent of control (PTK6 (human)): 56%; kinase still bound, per cent of control (CSNK1A1 (human)): 61%; kinase still bound, per cent of control (SLK (human)): 0.1%; kinase still bound, per cent of control (PRKX (human)): 94%; kinase still bound, per cent of control (CSNK1G1 (human)): 100%; kinase still bound, per cent of control (MAP3K2 (human)): 0.05%
COc1cc2ncn(-c3cc(OCc4ccccc4C(F)(F)F)c(C(N)=O)s3)c2cc1OC | 86 | 72 | 87 | 45 | 100 | 73 | 100 | 63 | 8.6 | 7 | 77 | 100 | 72 | 18 | 78 | 54 | 74 | 100 | 100 | 100 | kinase still bound, per cent of control (MAP4K4 (human)): 53%; kinase still bound, per cent of control [2]: 8%; kinase still bound, per cent of control (INSR (human)): 84%; kinase still bound, per cent of control (MAP4K1 (human)): 44%; kinase still bound, per cent of control (CAMK2B (human)): 75%; kinase still bound, per cent of control (WEE1 (human)): 83%; kinase still bound, per cent of control (NEK1 (human)): 65%; kinase still bound, per cent of control (LATS1 (human)): 100%; kinase still bound, per cent of control (MYO3A (human)): 81%; kinase still bound, per cent of control [3]: 59%; kinase still bound, per cent of control (ANKK1 (human)): 80%; kinase still bound, per cent of control (PHKG2 (human)): 100%; kinase still bound, per cent of control (PTK6 (human)): 84%; kinase still bound, per cent of control (CSNK1A1 (human)): 60%; kinase still bound, per cent of control (SLK (human)): 0.25%; kinase still bound, per cent of control (PRKX (human)): 98%; kinase still bound, per cent of control (CSNK1G1 (human)): 86%; kinase still bound, per cent of control (MAP3K2 (human)): 100%
